Target: Alpha-synuclein (Homo sapiens) (UniProt P37840)
Experiment: Inhibition of alpha-synuclein (unknown origin) dimerization transfected in mouse Neuro2a cells assessed as reduction in aggregation at 10 uM incubated for 4 hrs by split Gaussia luciferase-based assay relative to control; values are per cent of control

COc1cc(CCc2nc(C)c(N3CCC[C@H]3C#N)o2)cc(OC)c1
residual activity: 100%

Source: ChEMBL document CHEMBL5352503, “Nonpeptidic Oxazole-Based Prolyl Oligopeptidase Ligands with Disease-Modifying Effects on α-Synuclein Mouse Models of Parkinson's Disease” (J Med Chem, 2023)
